Assay results from publication PMC11727701 (Drug Design, Development and Therapy, 2025).

Molecular target: NaV1.5 (Homo sapiens, UniProt Q14524)
Assay: manual whole-cell patch clamp in CHL cells stably expressing SCN5A
Format: cell-based

Chain of NaV1.5 (Q14524 whole entry): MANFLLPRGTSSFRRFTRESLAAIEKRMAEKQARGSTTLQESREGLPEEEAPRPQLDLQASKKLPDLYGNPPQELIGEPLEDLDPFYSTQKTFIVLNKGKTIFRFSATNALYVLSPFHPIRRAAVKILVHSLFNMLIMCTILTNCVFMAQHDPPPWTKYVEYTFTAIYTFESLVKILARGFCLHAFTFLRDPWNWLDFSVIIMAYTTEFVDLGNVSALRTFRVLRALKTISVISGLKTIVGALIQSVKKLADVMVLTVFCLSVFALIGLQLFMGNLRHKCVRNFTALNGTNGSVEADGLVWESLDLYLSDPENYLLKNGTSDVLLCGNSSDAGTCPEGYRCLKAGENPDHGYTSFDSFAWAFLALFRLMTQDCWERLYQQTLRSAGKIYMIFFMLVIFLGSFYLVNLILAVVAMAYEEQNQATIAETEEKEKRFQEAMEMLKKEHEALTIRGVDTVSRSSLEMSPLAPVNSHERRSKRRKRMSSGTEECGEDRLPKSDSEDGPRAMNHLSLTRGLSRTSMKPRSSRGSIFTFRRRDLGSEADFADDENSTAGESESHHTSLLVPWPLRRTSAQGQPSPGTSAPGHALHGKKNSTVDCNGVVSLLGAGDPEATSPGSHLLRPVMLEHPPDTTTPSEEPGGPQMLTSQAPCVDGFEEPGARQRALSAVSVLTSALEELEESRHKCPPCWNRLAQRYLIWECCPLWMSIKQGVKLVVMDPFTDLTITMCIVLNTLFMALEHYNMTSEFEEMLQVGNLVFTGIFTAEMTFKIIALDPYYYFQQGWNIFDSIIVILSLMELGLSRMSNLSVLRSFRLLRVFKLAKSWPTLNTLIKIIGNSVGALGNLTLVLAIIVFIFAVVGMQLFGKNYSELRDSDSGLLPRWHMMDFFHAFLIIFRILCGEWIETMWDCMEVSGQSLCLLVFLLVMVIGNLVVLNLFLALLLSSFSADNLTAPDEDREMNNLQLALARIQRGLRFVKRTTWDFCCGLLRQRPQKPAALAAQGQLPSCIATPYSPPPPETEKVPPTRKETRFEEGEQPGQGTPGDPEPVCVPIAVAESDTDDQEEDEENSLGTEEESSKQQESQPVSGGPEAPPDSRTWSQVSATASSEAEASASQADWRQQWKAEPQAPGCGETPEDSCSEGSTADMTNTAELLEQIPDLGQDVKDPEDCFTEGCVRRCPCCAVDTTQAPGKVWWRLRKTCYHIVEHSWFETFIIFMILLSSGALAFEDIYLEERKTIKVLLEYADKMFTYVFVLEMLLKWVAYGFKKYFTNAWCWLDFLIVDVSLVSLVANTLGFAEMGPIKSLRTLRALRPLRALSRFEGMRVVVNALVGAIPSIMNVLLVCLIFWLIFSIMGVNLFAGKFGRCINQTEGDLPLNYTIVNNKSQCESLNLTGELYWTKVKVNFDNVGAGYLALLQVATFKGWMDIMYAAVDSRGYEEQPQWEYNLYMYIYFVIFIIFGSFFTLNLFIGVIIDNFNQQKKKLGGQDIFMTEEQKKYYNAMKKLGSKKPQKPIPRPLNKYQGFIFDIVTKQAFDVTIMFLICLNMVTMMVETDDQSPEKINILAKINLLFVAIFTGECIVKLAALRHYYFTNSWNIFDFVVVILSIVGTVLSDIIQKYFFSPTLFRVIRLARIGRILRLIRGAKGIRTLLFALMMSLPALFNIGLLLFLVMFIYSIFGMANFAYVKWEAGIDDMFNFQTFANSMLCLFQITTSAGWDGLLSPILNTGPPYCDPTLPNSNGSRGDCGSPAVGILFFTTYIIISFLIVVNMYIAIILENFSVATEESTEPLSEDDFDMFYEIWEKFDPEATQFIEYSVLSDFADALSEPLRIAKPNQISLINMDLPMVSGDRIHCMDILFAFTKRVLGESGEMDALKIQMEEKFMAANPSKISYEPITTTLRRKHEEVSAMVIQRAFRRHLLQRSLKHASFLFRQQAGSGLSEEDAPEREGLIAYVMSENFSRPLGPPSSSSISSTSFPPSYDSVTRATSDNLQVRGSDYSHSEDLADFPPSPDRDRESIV

CCCCCCCCCCCC(=O)O [LA, lauric acid] gave an IC50 of 27.4 ± 12.8 µM.
